{"source": "patent US20260085036A1", "about": "(MiHKAL GmbH, priority 2022, published 2026)", "key": {"[1]": {"assay": "Stability study in phosphate buffers pH 7.4 and pH 8.0", "assay_type": "physicochemical", "conditions": "phosphate buffer pH 7.4/pH 8.0, 37° C.", "protocol": "(§1) Three novel compounds i.e., tert-butyl (2,5-dimethoxy-4-methylphenethyl)carbamate (Preparative Example 18), tert-butyl (2,5-dimethoxyphenethyl)carbamate (Preparative Example 7), and N-(3,4,5-Trimethoxyphenethyl-2-hydroxy-acetophenon imine (Preparative Example 17) were tested for their stability in 1% hydrochloric acid (HCl) as well as in phosphate buffers at pH 7.4 and pH 8.0. These conditions were selected to provide insights into the chemical stability of compounds at a pH values similar to conditions within the human body. The diluted hydrochloric acid (pH 1) represents gastric acid within the stomach whereas the potassium phosphate buffers at pH 7.4 and pH 8.0 simulate the conditions in the human blood and small intestine, respectively.\n(§2) 4 mg of each test compound was diluted in either HCl solution or phosphate buffer (0.1 M) to give a solution of 1 mg/ml. Regarding the acidic testing with hydrochloric acid, 2 ml of aqueous test compound solutions were then added to 2 ml of 0.64 M HCl, yielding a final HCl concentration of 0.32 M (pH 0.5). Since all compounds tested, represent «free bases», a minimal amount of 100-200 microliters of dimethylsulfoxide (DMSO) has been added to avoid aggregation effects during testing. […] Concentrations of parent compound were analyzed at various timepoints using LC-MS. […]"}, "[2]": {"conditions": "cited from earlier work"}, "[3]": {"conditions": "patients; cited from earlier work"}, "[4]": {"target": "T1, human NET (Homo sapiens, UniProt P23975)", "T1 construct": "expressed in transfected cells", "T1 sequence (P23975 whole entry)": "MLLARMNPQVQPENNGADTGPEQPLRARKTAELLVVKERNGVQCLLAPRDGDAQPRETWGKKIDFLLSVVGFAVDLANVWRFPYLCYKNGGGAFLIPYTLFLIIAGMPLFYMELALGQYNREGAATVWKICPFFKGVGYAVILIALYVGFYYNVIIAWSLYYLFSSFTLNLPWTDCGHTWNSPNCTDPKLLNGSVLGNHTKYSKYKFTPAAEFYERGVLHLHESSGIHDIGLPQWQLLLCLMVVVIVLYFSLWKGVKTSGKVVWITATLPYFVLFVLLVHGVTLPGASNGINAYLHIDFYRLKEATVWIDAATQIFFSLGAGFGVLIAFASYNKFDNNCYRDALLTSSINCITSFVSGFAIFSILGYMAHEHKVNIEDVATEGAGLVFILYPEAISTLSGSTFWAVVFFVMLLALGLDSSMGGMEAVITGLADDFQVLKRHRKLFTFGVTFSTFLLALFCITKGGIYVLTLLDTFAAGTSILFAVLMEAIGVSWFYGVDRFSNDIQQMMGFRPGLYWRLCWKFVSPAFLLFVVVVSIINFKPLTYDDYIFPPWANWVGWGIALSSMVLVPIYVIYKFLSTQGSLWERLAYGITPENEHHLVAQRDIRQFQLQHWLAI", "assay": "Uptake inhibition assay, NET", "assay_type": "cell-based", "protocol": "(§3) Human embryonic kidney (HEK) 293 cells stably expressing human DAT, NET or SERT were maintained in humidified atmosphere (37° C., 5% CO2) in Dulbecco's Modified Eagle Medium (DMEM), supplemented with 10% heat-inactivated fetal calf serum (FCS), streptomycin (100 μg×100 mL^−1) and penicillin (100 U×100 mL^−1). Geneticin (50 μg×mL^−1) was used as selection antibiotic.\n(§4) One day before the experiment, HEK293 cells expressing the respective transporters (DAT, NET or SERT) were seeded onto poly-D-lysine coated 96 well plates at a density of 30,000 cells per well in a final volume of 200 μL. For uptake experiments, the cell culture medium was replaced with […] Krebs-HEPES buffer (KHB; 25 mM HEPES, 120 mM NaCl, 5 mM KCl, 1.2 mM CaCl2, 1.2 mM MgSO4, and 5 mM D-glucose, pH 7.3). Then, the buffer was replaced with various concentrations of test compounds for 5 minutes; subsequent to that, 0.1 μM [^3H]5-HT (SERT), 0.1 μM [^3H]dopamine (DAT), or 0.05 μM [^3H]MPP^+ (NET) in KHB was added to yield a total volume of 50 μL in the well. For determination of non-specific uptake, paroxetine was used in case of SERT (3 μM), vanoxerine (also known as GBR12909) for DAT and NET (50 μM).\n(§5) Uptake was terminated after 60 s (SERT) or 180 s (DAT, NET) by washing the cells with 200 μL ice-cold KHB. Subsequently, the cells were lysed with 200 μL Ultima Gold™ XR liquid scintillation cocktail, and the amount of tritium in the cells was measured with a Wallac 1450 MicroBeta® TriLux liquid scintillation counter. Monoamine uptake data were fitted by nonlinear regression, Vmax and Km values were calculated from Michaelis Menten's least-squares fit with GraphPad Prism (Prism 9.0.2, GraphPad Software, San Diego, CA, USA).\n(§6) RT054 and RT056 were tested in both uptake inhibition and release assays, and the corresponding prodrug AM176 was tested in uptake inhibition assays. AM176 was tested either as the undecomposed prodrug or after treatment with 0.5% HCl at 37° C. for 24 hours in order to simulate digestion of the prodrug by gastric acid inside the body after peroral administration."}, "[5]": {"target": "T2, human DAT (Homo sapiens, UniProt Q01959)", "T2 construct": "expressed in transfected cells", "T2 sequence (Q01959 whole entry)": "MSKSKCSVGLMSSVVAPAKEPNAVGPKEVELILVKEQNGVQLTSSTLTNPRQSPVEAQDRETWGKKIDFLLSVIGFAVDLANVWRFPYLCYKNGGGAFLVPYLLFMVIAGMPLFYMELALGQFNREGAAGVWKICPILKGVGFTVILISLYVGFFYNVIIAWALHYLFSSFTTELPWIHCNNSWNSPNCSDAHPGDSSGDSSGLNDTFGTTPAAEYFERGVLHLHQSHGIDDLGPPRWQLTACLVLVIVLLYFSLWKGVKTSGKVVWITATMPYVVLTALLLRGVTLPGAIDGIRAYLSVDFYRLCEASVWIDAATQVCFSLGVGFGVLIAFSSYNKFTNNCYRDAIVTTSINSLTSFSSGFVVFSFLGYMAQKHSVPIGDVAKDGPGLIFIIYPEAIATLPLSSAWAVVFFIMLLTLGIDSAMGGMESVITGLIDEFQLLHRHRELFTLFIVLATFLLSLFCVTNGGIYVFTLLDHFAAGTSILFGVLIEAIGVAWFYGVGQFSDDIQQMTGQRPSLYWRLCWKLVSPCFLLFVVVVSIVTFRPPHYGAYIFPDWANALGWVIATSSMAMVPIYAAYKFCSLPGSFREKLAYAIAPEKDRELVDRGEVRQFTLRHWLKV", "assay": "Uptake inhibition assay, DAT", "assay_type": "cell-based", "protocol": "as §3, §4, §5, §6"}, "[6]": {"target": "T3, human SERT (Homo sapiens, UniProt P31645)", "T3 construct": "expressed in transfected cells", "T3 sequence (P31645 whole entry)": "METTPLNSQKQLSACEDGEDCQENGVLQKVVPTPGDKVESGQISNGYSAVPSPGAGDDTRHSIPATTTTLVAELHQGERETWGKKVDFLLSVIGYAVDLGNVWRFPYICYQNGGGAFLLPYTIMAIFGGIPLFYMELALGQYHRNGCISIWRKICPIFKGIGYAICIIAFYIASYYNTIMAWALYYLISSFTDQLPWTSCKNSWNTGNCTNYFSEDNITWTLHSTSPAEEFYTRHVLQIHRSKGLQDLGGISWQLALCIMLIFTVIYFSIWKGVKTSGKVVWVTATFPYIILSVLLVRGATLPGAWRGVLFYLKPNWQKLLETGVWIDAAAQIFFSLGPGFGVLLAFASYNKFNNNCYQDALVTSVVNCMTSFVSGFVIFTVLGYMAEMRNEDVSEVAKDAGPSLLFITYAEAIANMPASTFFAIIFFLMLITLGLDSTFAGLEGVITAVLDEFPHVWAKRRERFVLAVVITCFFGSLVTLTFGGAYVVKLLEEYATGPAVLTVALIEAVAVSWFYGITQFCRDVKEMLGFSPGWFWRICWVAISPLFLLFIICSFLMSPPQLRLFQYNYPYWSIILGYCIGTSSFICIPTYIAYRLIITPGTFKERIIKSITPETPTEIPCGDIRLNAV", "assay": "Uptake inhibition assay, SERT", "assay_type": "cell-based", "protocol": "as §3, §4, §5, §6"}, "[7]": {"assay": "Stability study in 1% HCl (representative of gastric acid)", "assay_type": "physicochemical", "conditions": "37° C., approximately 21 hours, LC-MS", "protocol": "as §1, §2"}, "[8]": {"conditions": "HEK293 cells stably expressing NET, [3H]MPP+"}, "[9]": {"conditions": "HEK293 cells stably expressing DAT, [3H]dopamine"}, "[10]": {"conditions": "HEK293 cells stably expressing SERT, [3H]5-HT"}}, "data": [{"molecule": "COc1ccc(OC)c(CCNC(=O)OC(C)(C)C)c1", "note": "[Preparative Example 7, tert.-butyl-(2,5-Dimethoxyphenethyl)carbamate]", "values": [{"measurement": "Degradation at neutral and basic conditions", "setting": "[1]", "value": "complete stability"}]}, {"molecule": "NCCc1ccccc1", "note": "[phenethylamine (PEA), phenethylamine]", "values": [{"measurement": "half-life after oral consumption", "setting": "[2]", "value": "approximately 10 minutes"}]}, {"molecule": "COc1cc(CCNC(=O)OC(C)(C)C)c(OC)cc1C", "note": "[Preparative Example 18, t-butyl-(2,5-Dimethoxy-4-methylphenethyl)carbamate]", "values": [{"measurement": "Degradation at neutral and basic conditions", "setting": "[1]", "value": "complete stability"}]}, {"molecule": "COc1cc(CCN)cc(OC)c1OC", "note": "[Mescaline, mescaline]", "values": [{"measurement": "oral dose to cause the desired psychedelic state", "setting": "[3]", "value": "over 200 mg"}]}, {"molecule": "CNC(C)Cc1ccc2c(c1)OCS2", "note": "(centres unmarked) [RT056, Benzoxathiol-6-yl-N-methyl-propan-2-amine]", "values": [{"measurement": "IC50", "setting": "[4]; [8]", "value": 1.8, "unit": "µM"}, {"measurement": "IC50", "setting": "[5]; [9]", "value": 0.9, "unit": "µM"}, {"measurement": "IC50", "setting": "[6]; [10]", "value": 4.5, "unit": "µM"}]}, {"molecule": "COc1cc(CC/N=C(\\C)c2ccccc2O)cc(OC)c1OC", "values": [{"measurement": "Degradation in 1% HCl to the corresponding drug", "setting": "[7]", "value": "more retarded degradation behavior"}]}, {"molecule": "CC(Cc1ccc2c(c1)OCS2)N(C)C(=O)OC(C)(C)C", "note": "(centres unmarked) [AM176, tert-butyl (1-benzo[d][1,3]oxathiole-6-yl)propan-2-yl(methyl)carbamate]", "values": [{"measurement": "IC50", "setting": "[4]; HCl-treated (0.5% HCl at 37° C. for 24 hours), HEK293 cells expressing NET", "value": 9.2, "unit": "µM"}, {"measurement": "Interaction with NET in uptake inhibition assay (in words)", "setting": "[4]; after pre-treatment with HCl", "value": "inhibits substrate-uptake via all monoamine transporters in a competitive manner"}, {"measurement": "Interaction with NET in uptake inhibition assay (in words)", "setting": "[4]; without pre-treatment with HCl", "value": "no interaction"}, {"measurement": "IC50", "setting": "[5]; HCl-treated (0.5% HCl at 37° C. for 24 hours), HEK293 cells expressing DAT", "value": 3.4, "unit": "µM"}, {"measurement": "Interaction with DAT in uptake inhibition assay (in words)", "setting": "[5]; after pre-treatment with HCl", "value": "inhibits substrate-uptake via all monoamine transporters in a competitive manner"}, {"measurement": "Interaction with DAT in uptake inhibition assay (in words)", "setting": "[5]; without pre-treatment with HCl", "value": "no interaction"}, {"measurement": "IC50", "setting": "[6]; HCl-treated (0.5% HCl at 37° C. for 24 hours), HEK293 cells expressing SERT", "value": 18.3, "unit": "µM"}, {"measurement": "Interaction with SERT in uptake inhibition assay (in words)", "setting": "[6]; after pre-treatment with HCl", "value": "inhibits substrate-uptake via all monoamine transporters in a competitive manner"}, {"measurement": "Interaction with SERT in uptake inhibition assay (in words)", "setting": "[6]; without pre-treatment with HCl", "value": "no interaction"}]}, {"molecule": "CC(N)Cc1ccc2c(c1)OCS2", "note": "(centres unmarked) [RT054, Benzoxathiol-6-yl-propan-2-amine, reference compound]", "values": [{"measurement": "IC50", "setting": "[4]; [8]", "value": 0.8, "unit": "µM"}, {"measurement": "IC50", "setting": "[5]; [9]", "value": 1.3, "unit": "µM"}, {"measurement": "IC50", "setting": "[6]; [10]", "value": 3.6, "unit": "µM"}]}]}
